This note sets out measurements from PubChem BioAssay AID210 (DTP/NCI, 2004).

For this assay, the system named is CD2F1 mice, ip Colon 26 adenocarcinoma, median survival T/C. Description: NCI In Vivo Anticancer Drug Screen. Data for tumor model Colon 26 Adenocarcinoma (intraperitoneal) in CD2F1 (CDF1) mice. The following applies: endpoint: median survival time, higher = longer survival. Here is the method:
The antitumor activity of compounds was measured in mice bearing transplantable tumors. Survival or tumor size were measured and the results are expressed as the measurement made in the treated group (T) divided by the measurement made in the vehicle treated control group (C). The tumor model used in this assay is Colon 26 Adenocarcinoma (intraperitoneal) in CD2F1 (CDF1) mice

Structures are written as SMILES. “And” between values parts separate entries of the source, which are not always exact repeats. Equal entries are not always repeated. Inconclusive results and toxic doses are left out.

Regarding `COc1cccc2c1C(=O)c1c(O)c3c(c(O)c1C2=O)C[C@@](O)(C(=O)CO)C[C@@H]3OC1CC(N)C(O)C(C)O1` (some centres not stated), the T/C by setting is: (dose: 0.25 mg/kg/injection, schedule: Q01DX009 (ip), vehicle: saline) 151 % of control; (dose: 0.38 mg/kg/injection, schedule: Q04DX003 (ip), vehicle: water) 113 % of control; (dose: 0.5 mg/kg/injection, schedule: Q01DX009 (ip), vehicle: saline) 154 % of control; (dose: 0.75 mg/kg/injection, schedule: Q04DX003 (ip), vehicle: water) 117 % of control; (dose: 1.0 mg/kg/injection, schedule: Q01DX009 (ip), vehicle: saline) 243 % of control; (dose: 1.5 mg/kg/injection, schedule: Q04DX003 (ip), vehicle: water) 106 % of control. The T/C is 111 % of control (dose: 1.5 mg/kg/injection, schedule: Q07DX003 (iv), vehicle: saline); 157 % of control (dose: 1.73 mg/kg/injection, schedule: Q04DX003 (ip), vehicle: water); 310 % of control (dose: 2.0 mg/kg/injection, schedule: Q01DX009 (ip), vehicle: saline); 278 % of control (dose: 2.0 mg/kg/injection, schedule: Q04DX003 (ip), vehicle: saline); 91 % of control (dose: 3.0 mg/kg/injection, schedule: Q04DX003 (ip), vehicle: water); 97 % of control (dose: 3.0 mg/kg/injection, schedule: Q07DX003 (iv), vehicle: saline). For the same compound, the T/C by setting is: (dose: 3.3 mg/kg/injection, schedule: Q07DX002 (iv), vehicle: saline) 105 % of control; (dose: 3.7 mg/kg/injection, schedule: Q07DX003 (iv), vehicle: saline) 112 % of control; (dose: 4.0 mg/kg/injection, schedule: Q04DX003 (ip), vehicle: saline) 334 % of control; (dose: 4.3 mg/kg/injection, schedule: Q07DX002 (iv), vehicle: saline) 106 % of control; (dose: 4.5 mg/kg/injection, schedule: Q07DX002 (iv), vehicle: saline) 108 % of control; (dose: 4.5 mg/kg/injection, schedule: Q07DX002 (sc), vehicle: saline) 101 % of control. The T/C runs as follows: (dose: 4.8 mg/kg/injection, schedule: Q04DX003 (ip), vehicle: water) 152 % of control; (dose: 4.8 mg/kg/injection, schedule: Q07DX003 (iv), vehicle: saline) 107 % of control and 108 % of control; (dose: 5.4 mg/kg/injection, schedule: Q07DX002 (iv), vehicle: saline) 111 % of control; (dose: 5.8 mg/kg/injection, schedule: Q07DX003 (iv), vehicle: saline) 115 % of control; (dose: 6.0 mg/kg/injection, schedule: Q04DX003 (ip), vehicle: water) 120 % of control; (dose: 6.3 mg/kg/injection, schedule: Q07DX002 (ip), vehicle: saline) 197 % of control. The T/C was 105 % of control and 106 % of control (dose: 6.3 mg/kg/injection, schedule: Q07DX002 (iv), vehicle: saline); 113 % of control and 114 % of control and 115 % of control (dose: 6.3 mg/kg/injection, schedule: Q07DX003 (iv), vehicle: saline); 122 % of control (dose: 6.5 mg/kg/injection, schedule: Q07DX002 (iv), vehicle: saline); 117 % of control (dose: 7.3 mg/kg/injection, schedule: Q07DX002 (iv), vehicle: saline); 114 % of control (dose: 7.3 mg/kg/injection, schedule: Q07DX002 (sc), vehicle: saline); 104 % of control and 112 % of control (dose: 8.1 mg/kg/injection, schedule: Q07DX002 (iv), vehicle: saline). Moreover, the T/C runs as follows: (dose: 8.1 mg/kg/injection, schedule: Q07DX003 (iv), vehicle: saline) 111 % of control and 119 % of control (2×); (dose: 8.7 mg/kg/injection, schedule: Q07DX002 (iv), vehicle: saline) 121 % of control; (dose: 9.0 mg/kg/injection, schedule: Q07DX003 (iv), vehicle: saline) 111 % of control; (dose: 9.3 mg/kg/injection, schedule: Q07DX002 (iv), vehicle: saline) 109 % of control; (dose: 9.8 mg/kg/injection, schedule: Q07DX002 (iv), vehicle: saline) 124 % of control; (dose: 10.5 mg/kg/injection, schedule: Q07DX002 (ip), vehicle: saline) 205 % of control. In addition, the T/C is 111 % of control and 88 % of control (dose: 10.5 mg/kg/injection, schedule: Q07DX002 (iv), vehicle: saline); 120 % of control and 94 % of control (dose: 10.5 mg/kg/injection, schedule: Q07DX003 (iv), vehicle: saline); 116 % of control (dose: 12.0 mg/kg/injection, schedule: Q04DX003 (ip), vehicle: water); 123 % of control (dose: 12.0 mg/kg/injection, schedule: Q07DX002 (iv), vehicle: saline); 122 % of control (dose: 12.0 mg/kg/injection, schedule: Q07DX002 (sc), vehicle: saline); 96 % of control (dose: 12.0 mg/kg/injection, schedule: Q07DX003 (iv), vehicle: saline). The T/C runs as follows: (dose: 14.0 mg/kg/injection, schedule: Q07DX002 (iv), vehicle: saline) 115 % of control; (dose: 14.0 mg/kg/injection, schedule: Q07DX003 (iv), vehicle: saline) 117 % of control; (dose: 19.0 mg/kg/injection, schedule: Q07DX002 (sc), vehicle: saline) 155 % of control.

Consider `COc1cccc2c1C(=N)c1c(O)c3c(c(O)c1C2=O)C[C@@](O)(C(C)=O)C[C@@H]3OC1CC(N)C(O)C(C)O1` (some centres not stated), for which the T/C is, setting by setting: (dose: 3.46 mg/kg/injection, schedule: Q04DX003 (ip), vehicle: water) 119 % of control; (dose: 5.76 mg/kg/injection, schedule: Q04DX003 (ip), vehicle: water) 119 % of control; (dose: 9.6 mg/kg/injection, schedule: Q04DX003 (ip), vehicle: water) 94 % of control.

In the case of `O=P1(N(CCCl)CCCl)NCCCO1` (configuration not stated), the T/C reads like this: (dose: 50.0 mg/kg/injection, schedule: Q03DX002 (ip), vehicle: saline) 106 % of control; (dose: 51.0 mg/kg/injection, schedule: Q07DX003 (ip), vehicle: saline) 119 % of control; (dose: 100.0 mg/kg/injection, schedule: Q03DX002 (ip), vehicle: saline) 117 % of control; (dose: 105.0 mg/kg/injection, schedule: Q07DX003 (ip), vehicle: saline) 154 % of control; (dose: 150.0 mg/kg/injection, schedule: Q07DX003 (ip), vehicle: saline) 165 % of control.

Regarding `C[C@@]1(CO)[C@H](O)CC[C@@]2(C)[C@H]1CC[C@H]1C[C@@H]3C[C@@]12CC[C@@]3(O)COC(=O)CN`, the T/C is 113 % of control (dose: 12.5 mg/kg/injection, schedule: Q01DX009 (ip), vehicle: saline + alcohol); 95 % of control (dose: 25.0 mg/kg/injection, schedule: Q01DX009 (ip), vehicle: saline + alcohol); 115 % of control (dose: 25.0 mg/kg/injection, schedule: Q04DX003 (iv), vehicle: saline); 106 % of control (dose: 50.0 mg/kg/injection, schedule: Q01DX009 (ip), vehicle: saline + alcohol); 118 % of control (dose: 50.0 mg/kg/injection, schedule: Q04DX003 (iv), vehicle: saline); 94 % of control (dose: 75.0 mg/kg/injection, schedule: Q01DX009 (ip), vehicle: saline + alcohol). Besides, the T/C (dose: 100.0 mg/kg/injection, schedule: Q04DX003 (iv), vehicle: saline) is 100 % of control.

Turning to `COc1cccc2c1C(=O)c1c(O)c3c(c(O)c1C2=O)C[C@@](O)(/C(C)=N\O)C[C@@H]3OC1CC(N)C(O)C(C)O1` (some centres not stated), the T/C is, setting by setting: (dose: 10.0 mg/kg/injection, schedule: Q07DX002 (ip), vehicle: saline) 105 % of control; (dose: 15.0 mg/kg/injection, schedule: Q07DX002 (ip), vehicle: saline) 110 % of control; (dose: 23.0 mg/kg/injection, schedule: Q07DX002 (ip), vehicle: saline) 115 % of control; (dose: 35.0 mg/kg/injection, schedule: Q07DX002 (ip), vehicle: saline) 119 % of control.

As for `Cc1cn(C2CC3[O][Sn]([c]4ccccc4)([c]4ccccc4)[O]CC3O2)c(=O)[nH]c1=O` (configuration not stated), the T/C is 96 % of control (dose: 25.0 mg/kg/injection, schedule: Q04DX002 (ip), vehicle: saline); 103 % of control (dose: 50.0 mg/kg/injection, schedule: Q04DX002 (ip), vehicle: saline); 112 % of control (dose: 100.0 mg/kg/injection, schedule: Q04DX002 (ip), vehicle: saline).
